Measurements as given in PubChem BioAssay (NCI).
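Assay format: 96-well plates, 48-hour exposure. TGI: total growth inhibition.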

Key:
Experiment in all cases: NCI tumour cell line growth inhibition, 48 h
[1] = system: 786-0 renal
[2] = system: A549 NSCLC
[3] = system: ACHN renal
[4] = system: CAKI-1 renal
[5] = system: COLO 205 colon
[6] = system: DMS 114 small cell lung
[7] = system: DMS 273 small cell lung
[8] = system: EKVX NSCLC
[9] = system: HCC-2998 colon
[10] = system: HCT-15 colon
[11] = system: HOP-92 NSCLC
[12] = system: HT29 colon
[13] = system: IGROV1 ovarian
[14] = system: K-562 leukemia
[15] = system: KM12 colon
[16] = system: KM20L2 colon
[17] = system: LXFL 529 NSCLC
[18] = system: M19-MEL melanoma
[19] = system: MALME-3M melanoma
[20] = system: MOLT-4 leukemia
[21] = system: NCI-H226 lung
[22] = system: NCI-H23 lung
[23] = system: NCI-H522 lung
[24] = system: OVCAR-3 ovarian
[25] = system: OVCAR-4 ovarian
[26] = system: OVCAR-5 ovarian
[27] = system: OVCAR-8 ovarian
[28] = system: RPMI-8226 leukemia
[29] = system: RXF 393 renal
[30] = system: SF-268 CNS
[31] = system: SF-295 CNS
[32] = system: SF-539 CNS
[33] = system: SK-MEL-2 melanoma
[34] = system: SK-MEL-28 melanoma
[35] = system: SK-MEL-5 melanoma
[36] = system: SK-OV-3 ovarian
[37] = system: SN12C renal
[38] = system: SNB-19 CNS
[39] = system: SNB-75 CNS
[40] = system: SNB-78 CNS
[41] = system: SR leukemia
[42] = system: SW-620 colon
[43] = system: TK-10 renal
[44] = system: U251 CNS
[45] = system: UACC-257 melanoma
[46] = system: UACC-62 melanoma
[47] = system: UO-31 renal
[48] = system: CCRF-CEM leukemia
[49] = system: DLD-1 colon
[50] = system: HCT-116 colon
[51] = system: HOP-18 NSCLC
[52] = system: HOP-62 NSCLC
[53] = system: LOX IMVI melanoma
[54] = system: M14 melanoma
[55] = system: NCI-H460 lung

## COc1ccc(/C=C/COC(C)=O)cc1OC
[1]
  TGI: > 100 µM
[2]
  TGI: > 100 µM
[3]
  TGI: > 100 µM
[4]
  TGI: > 100 µM
[5]
  TGI: > 100 µM
[6]
  TGI: > 100 µM
[7]
  TGI: > 100 µM
[8]
  TGI: > 100 µM
[9]
  TGI: > 100 µM
[10]
  TGI: > 100 µM
[11]
  TGI: > 100 µM
[12]
  TGI: > 100 µM
[13]
  TGI: > 100 µM
[14]
  TGI: > 100 µM
[15]
  TGI: > 100 µM
[16]
  TGI: > 100 µM
[17]
  TGI: > 100 µM
[18]
  TGI: > 100 µM
[19]
  TGI: > 100 µM
[20]
  TGI: > 100 µM
[21]
  TGI: > 100 µM
[22]
  TGI: > 100 µM
[23]
  TGI: > 100 µM
[24]
  TGI: > 100 µM
[25]
  TGI: > 100 µM
[26]
  TGI: > 100 µM
[27]
  TGI: > 100 µM
[28]
  TGI: > 100 µM
[29]
  TGI: > 100 µM
[30]
  TGI: > 100 µM
[31]
  TGI: > 100 µM
[32]
  TGI: > 100 µM
[33]
  TGI: > 100 µM
[34]
  TGI: > 100 µM
[35]
  TGI: > 100 µM
[36]
  TGI: > 100 µM
[37]
  TGI: > 100 µM
[38]
  TGI: > 100 µM
[39]
  TGI: > 100 µM
[40]
  TGI: > 100 µM
[41]
  TGI: > 100 µM
[42]
  TGI: > 100 µM
[43]
  TGI: > 100 µM
[44]
  TGI: > 100 µM
[45]
  TGI: > 100 µM
[46]
  TGI: > 100 µM
[47]
  TGI: > 100 µM

## COc1cc(C2C(Cl)C(=O)N2n2cnc3ccccc3c2=O)ccc1O (centres undefined)
[1]
  TGI: > 100 µM
[2]
  TGI: > 100 µM
[3]
  TGI: > 100 µM
[4]
  TGI: > 100 µM
[48]
  TGI: > 100 µM
[5]
  TGI: > 100 µM
[49]
  TGI: > 100 µM
[6]
  TGI: > 100 µM
[7]
  TGI: > 100 µM
[8]
  TGI: > 100 µM
[9]
  TGI: > 100 µM
[50]
  TGI: > 100 µM
[10]
  TGI: > 100 µM
[51]
  TGI: > 100 µM
[52]
  TGI: > 100 µM
[12]
  TGI: > 100 µM
[13]
  TGI: > 100 µM
[15]
  TGI: > 100 µM
[16]
  TGI: > 100 µM
[53]
  TGI: > 100 µM
[17]
  TGI: > 100 µM
[54]
  TGI: > 100 µM
[18]
  TGI: > 100 µM
[19]
  TGI: > 100 µM
[20]
  TGI: > 100 µM
[21]
  TGI: > 100 µM
[22]
  TGI: > 100 µM
[55]
  TGI: > 100 µM
[23]
  TGI: > 100 µM
[24]
  TGI: > 100 µM
[25]
  TGI: > 100 µM
[26]
  TGI: > 100 µM
[27]
  TGI: > 100 µM
[28]
  TGI: > 100 µM
[29]
  TGI: > 100 µM
[30]
  TGI: > 100 µM
[31]
  TGI: > 100 µM
[33]
  TGI: > 100 µM
[34]
  TGI: > 100 µM
[35]
  TGI: > 100 µM
[36]
  TGI: > 100 µM
[37]
  TGI: > 100 µM
[38]
  TGI: > 100 µM
[39]
  TGI: > 100 µM
[40]
  TGI: > 100 µM
[41]
  TGI: > 100 µM
[42]
  TGI: > 100 µM
[43]
  TGI: > 100 µM
[44]
  TGI: > 100 µM
[45]
  TGI: 99.6 µM
[46]
  TGI: > 100 µM
[47]
  TGI: > 100 µM
